Source: US10543202B2 (University of Saskatchewan, priority 2017, dated 2020)
“Also recorded” adds a separate entry of the source.

Key:
Type in all cases: physicochemical
[1] = Thin film of cream exposed to UVA light (photostability); conditions: for effect of photostabilizer in nifedipine emulsion on stability of nifedipine to UVA light: photostabilizer incorporated at varying concentrations up to 3% w/w in nifedipine 2% w/w cream
Source text: (§1) Light Exposure: A UVA lamp was mounted 8.5 inches above a lab bench surface and the flux set to 740-750 μW/cm^2. This level of flux is roughly equivalent to a bright sunny day in mid-summer. […] The lamp apparatus was placed inside an enclosure with an access door, to prevent ambient light entering and for worker safety. For samples exposed to “ambient light”, these were placed on a laboratory bench where standard fluorescent lighting was used. […] To prevent drying, the samples were covered with Saran Wrap®, a plastic film that was determined to be UVA-transparent. After the allotted exposure time the cream was scraped off the slide for extraction with methanol. Samples which were exposed while in solution and not incorporated in a cream were dissolved in methanol as a 20 mL solution in a 100 mL beaker.
The sample was warmed in a water bath to 85° C. to melt lipids, followed by addition of 5 mL of methanol and vortex mixing. The samples were centrifuged at 14,000×g for 5 minutes and the supernatant retained for analysis.
Values reported represent mean±SD for triplicate measurements.

[2] = Emulsion phase stability analysis (LUMiSizer photocentrifuge, instability index); conditions: photocentrifuge 42° C., 12 hrs, versus emulsion without photostabilizers
Procedure: This allows for an approximation of the relative stability to phase separation of emulsions that differ in the type or percentage of photoprotectant and for confirming batch-to-batch consistency in stability against phase separation.^35 For each sample type, triplicate samples of 2 mL were loaded into photocentrifuge acrylic cuvettes. The samples were centrifuged at 42° C.×12 hrs. Phase separation was detected as an increase in light transmission at the top of the sample, which is interpreted as an “instability index” reflecting the rate of change of light transmission.

[3] = Mass spectrometry analysis of nifedipine and its photodegradants in UVA-exposed creams
Source text: as §1

SMILES	effect of photostabilizer in nifedipine emulsion on stability of nifedipine to UVA light [1]	effect of photostabilizer on instability index / phase stability of nifedipine emulsion [2]	alternative nifedipine degradation pathways in presence of photostabilizer [3]	difference in nifedipine concentration between preparations with and without rutin ([1]; 2 h UVA exposure)	effectiveness as photoprotectant for nifedipine in O/W emulsion ([1]; concentrations up to 2% (w/w))	reduction of UVA-induced degradation of nifedipine ([1]; rutin 0.5-3% (w/w), 20 mg thin film, over 3 hrs)	effect of quercetin on photostability of nifedipine cream after UVA exposure ([1]; quercetin 0.5% w/w alone in nifedipine cream)
COc1ccc(C(=O)CC(=O)c2ccc(C(C)(C)C)cc2)cc1 [BMDBM, 1-(4-methoxyphenyl)-3-[4-(2-methyl-2-propanyl)phenyl]-1,3-propanedione]	moderately effective	reduced the instability; also recorded: increased the stability of the nifedipine emulsion	no alternative degradation pathways identified				
C[C@@H]1O[C@@H](OC[C@H]2O[C@@H](Oc3c(-c4ccc(O)c(O)c4)oc4cc(O)cc(O)c4c3=O)[C@H](O)[C@@H](O)[C@@H]2O)[C@H](O)[C@H](O)[C@H]1O [rutin, 2-(3,4-dihydroxyphenyl)-5,7-dihydroxy-4-oxo-4H-chromen-3-yl 6-O-(6-deoxy-α-L-mannopyranosyl)-β-D-glucopyranoside]	not protected from photodegradation; also recorded: not effective		no alternative degradation pathways identified	No significant difference	ineffective	did not significantly reduce UVA-induced degradation of nifedipine	
O=c1c(O)c(-c2ccc(O)c(O)c2)oc2cc(O)cc(O)c12 [quercetin, 2-(3,4-dihydroxyphenyl)-3,5,7-trihydroxy-4H-chromen-4-one]	increased the stability of nifedipine to UVA light	reduced the instability; also recorded: increased the stability of the nifedipine emulsion	no alternative degradation pathways identified				moderately effective; also recorded: photostability was improved
